Experimental data as given in publication PMC12274840 (The Journal of Biological Chemistry, 2025).
In brackets after ≈: the same amount, converted by molar mass. Where two headings read alike, the source gives them in different places.

Tests used:
Type in all cases: cell-based
[1] = system: E. coli KA797 cells carrying NmcA position 105 library
[2] = system: E. coli KA797 cells carrying CTX-M-14 position 105 library
[3] = system: E. coli KA797 cells carrying pUK21 vector without the β-lactamase gene; test: microbe, parasite or virus in culture; conditions: Escherichia coli; antibiotic alone; pUK21 without β-lactamase gene; read-out: MIC
[4] = system: E. coli KA797 cells carrying pUK21 with BlaC WT (Tat); test: microbe, parasite or virus in culture; conditions: Escherichia coli, antibiotic alone
[5] = system: E. coli KA797 cells carrying pUK21 with NmcA (pelB/Sec); test: microbe, parasite or virus in culture; conditions: Escherichia coli, antibiotic alone
[6] = system: E. coli KA797 cells carrying TEM-1 position 105 library; conditions: for Fi AMP AVG: average of replicates
[7] = system: E. coli KA797 cells carrying pUK21 with KPC-2 (Tat); test: microbe, parasite or virus in culture; conditions: Escherichia coli, antibiotic alone

CC1(C)S[C@@H]2[C@H](NC(=O)[C@H](N)c3ccccc3)C(=O)N2[C@H]1C(=O)O [ampicillin]
Fi AVG (average fitness of replicates) ([1]; NmcA AA 105 Ala): -0.604 | Significance of average fitness ([1]; NmcA AA 105 Ala): - | Fi AVG (average fitness of replicates) ([1]; NmcA AA 105 Arg): -0.595 | Significance of average fitness ([1]; NmcA AA 105 Arg): - | Fi AVG (average fitness of replicates) ([1]; NmcA AA 105 Asn): -0.193 | Significance of average fitness ([1]; NmcA AA 105 Asn): - | Fi AVG (average fitness of replicates) ([1]; NmcA AA 105 Asp): -0.514 | Significance of average fitness ([1]; NmcA AA 105 Asp): - | Fi AVG (average fitness of replicates) ([1]; NmcA AA 105 Cys): -0.572 | Significance of average fitness ([1]; NmcA AA 105 Cys): - | Fi AVG (average fitness of replicates) ([1]; NmcA AA 105 Gln): -0.362 | Significance of average fitness ([1]; NmcA AA 105 Gln): - | Fi AVG (average fitness of replicates) ([1]; NmcA AA 105 Glu): -0.554 | Significance of average fitness ([1]; NmcA AA 105 Glu): - | Fi AVG (average fitness of replicates) ([1]; NmcA AA 105 Gly): -0.012 | Fi AVG (average fitness of replicates) ([1]; NmcA AA 105 His): 0.000 | Fi AVG (average fitness of replicates) ([1]; NmcA AA 105 Ile): -0.668 | Significance of average fitness ([1]; NmcA AA 105 Ile): - | Fi AVG (average fitness of replicates) ([1]; NmcA AA 105 Leu): -0.515 | Significance of average fitness ([1]; NmcA AA 105 Leu): - | Fi AVG (average fitness of replicates) ([1]; NmcA AA 105 Lys): -0.761 | Significance of average fitness ([1]; NmcA AA 105 Lys): - | Fi AVG (average fitness of replicates) ([1]; NmcA AA 105 Met): -0.296 | Significance of average fitness ([1]; NmcA AA 105 Met): - | Fi AVG (average fitness of replicates) ([1]; NmcA AA 105 Phe): -0.065 | Fi AVG (average fitness of replicates) ([1]; NmcA AA 105 Pro): -0.462 | Significance of average fitness ([1]; NmcA AA 105 Pro): - | Fi AVG (average fitness of replicates) ([1]; NmcA AA 105 Ser): -0.413 | Significance of average fitness ([1]; NmcA AA 105 Ser): - | Fi AVG (average fitness of replicates) ([1]; NmcA AA 105 Thr): -0.905 | Significance of average fitness ([1]; NmcA AA 105 Thr): - | Fi AVG (average fitness of replicates) ([1]; NmcA AA 105 Trp): 0.277 | Significance of average fitness ([1]; NmcA AA 105 Trp): + | Fi AVG (average fitness of replicates) ([1]; NmcA AA 105 Tyr): 0.049 | Fi AVG (average fitness of replicates) ([1]; NmcA AA 105 Val): -0.608 | Significance of average fitness ([1]; NmcA AA 105 Val): - | WT abs Fi 1 (absolute fitness) ([1]; NmcA WT, replicate 1): 0.229 | WT abs Fi 2 (absolute fitness) ([1]; NmcA WT, replicate 2): 0.425 | Significance of average fitness ([2]; CTX-M-14 AA 105 Ala): - | Significance of average fitness ([2]; CTX-M-14 AA 105 Arg): - | Significance of average fitness ([2]; CTX-M-14 AA 105 Asn): - | Significance of average fitness ([2]; CTX-M-14 AA 105 Asp): - | Significance of average fitness ([2]; CTX-M-14 AA 105 Cys): - | Significance of average fitness ([2]; CTX-M-14 AA 105 Gln): - | Significance of average fitness ([2]; CTX-M-14 AA 105 Glu): - | Significance of average fitness ([2]; CTX-M-14 AA 105 Gly): - | Significance of average fitness ([2]; CTX-M-14 AA 105 His): - | Significance of average fitness ([2]; CTX-M-14 AA 105 Ile): - | Significance of average fitness ([2]; CTX-M-14 AA 105 Leu): - | Significance of average fitness ([2]; CTX-M-14 AA 105 Lys): - | Significance of average fitness ([2]; CTX-M-14 AA 105 Met): - | Significance of average fitness ([2]; CTX-M-14 AA 105 Pro): - | Significance of average fitness ([2]; CTX-M-14 AA 105 Ser): - | Significance of average fitness ([2]; CTX-M-14 AA 105 Thr): - | Significance of average fitness ([2]; CTX-M-14 AA 105 Val): - | WT abs Fi 2 (absolute fitness of wild type, Replicate 2) ([2]; CTX-M-14 WT (Tyr 105)): 0.605 | MIC [3]: 10 µg/mL (≈ 28.6 µM) | MIC [4]: 50 µg/mL (≈ 143 µM) | MIC [5]: 400 µg/mL (≈ 1140 µM) | Significance (Average fitnes AMP) ([6]; AA 105 Ala): - | Fi AMP AVG ([6]; AA 105 Ala): -0.222 | Fi AMP 1 ([6]; AA 105 Ala, replicate 1): -0.205 | Fi AMP 2 ([6]; AA 105 Ala, replicate 2): -0.239 | Significance (Average fitnes AMP) ([6]; AA 105 Arg): - | Fi AMP AVG ([6]; AA 105 Arg): -0.576 | Fi AMP 1 ([6]; AA 105 Arg, replicate 1): -0.568 | Fi AMP 2 ([6]; AA 105 Arg, replicate 2): -0.584 | Significance (Average fitnes AMP) ([6]; AA 105 Asn): - | Fi AMP AVG ([6]; AA 105 Asn): -0.070 | Fi AMP 1 ([6]; AA 105 Asn, replicate 1): -0.049 | Fi AMP 2 ([6]; AA 105 Asn, replicate 2): -0.091 | Significance (Average fitnes AMP) ([6]; AA 105 Asp): - | Fi AMP AVG ([6]; AA 105 Asp): -0.429 | Fi AMP 1 ([6]; AA 105 Asp, replicate 1): -0.401 | Fi AMP 2 ([6]; AA 105 Asp, replicate 2): -0.457 | Significance (Average fitnes AMP) ([6]; AA 105 Cys): - | Fi AMP AVG ([6]; AA 105 Cys): -0.587 | Fi AMP 1 ([6]; AA 105 Cys, replicate 1): -0.602 | Fi AMP 2 ([6]; AA 105 Cys, replicate 2): -0.572 | Significance (Average fitnes AMP) ([6]; AA 105 Gln): - | Fi AMP AVG ([6]; AA 105 Gln): -0.282 | Fi AMP 1 ([6]; AA 105 Gln, replicate 1): -0.271 | Fi AMP 2 ([6]; AA 105 Gln, replicate 2): -0.293 | Significance (Average fitnes AMP) ([6]; AA 105 Glu): - | Fi AMP AVG ([6]; AA 105 Glu): -0.667 | Fi AMP 1 ([6]; AA 105 Glu, replicate 1): -0.663 | Fi AMP 2 ([6]; AA 105 Glu, replicate 2): -0.672 | Significance (Average fitnes AMP) ([6]; AA 105 Gly): - | Fi AMP AVG ([6]; AA 105 Gly): -0.061 | Fi AMP 1 ([6]; AA 105 Gly, replicate 1): -0.036 | Fi AMP 2 ([6]; AA 105 Gly, replicate 2): -0.087 | Significance (Average fitnes AMP) ([6]; AA 105 His): - | Fi AMP AVG ([6]; AA 105 His): -0.071 | Fi AMP 1 ([6]; AA 105 His, replicate 1): -0.065 | Fi AMP 2 ([6]; AA 105 His, replicate 2): -0.077 | Significance (Average fitnes AMP) ([6]; AA 105 Ile): - | Fi AMP AVG ([6]; AA 105 Ile): -0.580 | Fi AMP 1 ([6]; AA 105 Ile, replicate 1): -0.558 | Fi AMP 2 ([6]; AA 105 Ile, replicate 2): -0.602 | Significance (Average fitnes AMP) ([6]; AA 105 Leu): - | Fi AMP AVG ([6]; AA 105 Leu): -0.490 | Fi AMP 1 ([6]; AA 105 Leu, replicate 1): -0.459 | Fi AMP 2 ([6]; AA 105 Leu, replicate 2): -0.521 | Significance (Average fitnes AMP) ([6]; AA 105 Lys): - | Fi AMP AVG ([6]; AA 105 Lys): -0.754 | Fi AMP 1 ([6]; AA 105 Lys, replicate 1): -0.749 | Fi AMP 2 ([6]; AA 105 Lys, replicate 2): -0.759 | Significance (Average fitnes AMP) ([6]; AA 105 Met): - | Fi AMP AVG ([6]; AA 105 Met): -0.188 | Fi AMP 1 ([6]; AA 105 Met, replicate 1): -0.138 | Fi AMP 2 ([6]; AA 105 Met, replicate 2): -0.238 | Significance (Average fitnes AMP) ([6]; AA 105 Phe): - | Fi AMP AVG ([6]; AA 105 Phe): -0.048 | Fi AMP 1 ([6]; AA 105 Phe, replicate 1): -0.041 | Fi AMP 2 ([6]; AA 105 Phe, replicate 2): -0.054 | Significance (Average fitnes AMP) ([6]; AA 105 Pro): - | Fi AMP AVG ([6]; AA 105 Pro): -0.152 | Fi AMP 1 ([6]; AA 105 Pro, replicate 1): -0.157 | Fi AMP 2 ([6]; AA 105 Pro, replicate 2): -0.147 | Significance (Average fitnes AMP) ([6]; AA 105 Ser): - | Fi AMP AVG ([6]; AA 105 Ser): -0.203 | Fi AMP 1 ([6]; AA 105 Ser, replicate 1): -0.219 | Fi AMP 2 ([6]; AA 105 Ser, replicate 2): -0.186 | Significance (Average fitnes AMP) ([6]; AA 105 Thr): - | Fi AMP AVG ([6]; AA 105 Thr): -0.391 | Fi AMP 1 ([6]; AA 105 Thr, replicate 1): -0.402 | Fi AMP 2 ([6]; AA 105 Thr, replicate 2): -0.379 | Fi AMP AVG ([6]; AA 105 Trp): 0.019 | Fi AMP 1 ([6]; AA 105 Trp, replicate 1): 0.033 | Fi AMP 2 ([6]; AA 105 Trp, replicate 2): 0.006 | Fi AMP AVG ([6]; AA 105 Tyr): 0.000 | Fi AMP 1 ([6]; AA 105 Tyr, replicate 1): 0.000 | Fi AMP 2 ([6]; AA 105 Tyr, replicate 2): 0.000 | Significance (Average fitnes AMP) ([6]; AA 105 Val): - | Fi AMP AVG ([6]; AA 105 Val): -0.403 | Fi AMP 1 ([6]; AA 105 Val, replicate 1): -0.371 | Fi AMP 2 ([6]; AA 105 Val, replicate 2): -0.435 | WT abs Fi 1 ([6]; absolute fitness of TEM-1 WT, AMP, replicate 1): 0.351 | WT abs Fi 2 ([6]; absolute fitness of TEM-1 WT, AMP, replicate 2): 0.374 | MIC [7]: 200 µg/mL (≈ 572 µM)
